{
  "source": "patent US12486253B2",
  "about": "“Therapeutics for the degradation of mutant BRAF” (C4 THERAPEUTICS, INC., priority 2021, dated 2025)",
  "key": {"[1]": {"target": "RAF1 (a.k.a CRAF) (Homo sapiens, UniProt P04049)", "sequence (P04049 whole entry)": "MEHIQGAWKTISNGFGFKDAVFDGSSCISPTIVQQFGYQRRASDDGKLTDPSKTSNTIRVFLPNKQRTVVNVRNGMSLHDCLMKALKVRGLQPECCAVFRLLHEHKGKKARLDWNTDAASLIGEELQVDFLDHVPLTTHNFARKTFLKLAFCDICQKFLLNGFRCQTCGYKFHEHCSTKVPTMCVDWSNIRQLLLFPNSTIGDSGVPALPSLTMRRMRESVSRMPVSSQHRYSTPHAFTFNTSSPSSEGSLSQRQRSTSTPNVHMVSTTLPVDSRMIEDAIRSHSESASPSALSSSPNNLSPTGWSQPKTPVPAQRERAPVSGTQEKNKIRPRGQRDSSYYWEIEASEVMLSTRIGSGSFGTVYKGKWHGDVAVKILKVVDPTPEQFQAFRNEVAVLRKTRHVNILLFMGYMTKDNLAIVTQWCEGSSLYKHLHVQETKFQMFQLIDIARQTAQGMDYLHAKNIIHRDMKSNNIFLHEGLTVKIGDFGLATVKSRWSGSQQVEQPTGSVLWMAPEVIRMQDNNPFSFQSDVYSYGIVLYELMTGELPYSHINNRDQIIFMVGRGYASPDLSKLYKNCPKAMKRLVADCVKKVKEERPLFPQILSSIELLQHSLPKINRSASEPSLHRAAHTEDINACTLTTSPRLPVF", "experiment": "Global proteomics profiling, A375 cells", "assay_type": "cell-based", "parameters": "endogenous in cells; host or cells: A375 (A8.2)", "details": "300 nM, 24 hours", "procedure": "(§1) Each cell line was treated in duplicate with either DMSO or Compound 157 (final concentration 300 nM) for 24 hours in an incubator at 37° C. with 5% CO2. After the 24-hour incubation, cells were harvested, washed twice with PBS, and snap frozen in liquid nitrogen. Samples were re-suspended in lysis buffer [8 M urea, 50 mM HEPES (pH 8.5), 50 mM NaCl, 1× protease inhibitor cocktail] and lysed by sonication at 4° C. with 85% amplitude in a pulse setting with 30 seconds on and 30 seconds off for a total sonication time of 5 minutes. Lysates were centrifuged at maximum speed for 10 minutes at 4° C. and the supernatant collected, reduced for 1 hour at room temperature with 5 mM TCEP, and the cysteine residues were then alkylated with 15 mM iodoacetamide (room temperature, in dark, 30 minutes). Protein content was extracted by methanol-chloroform precipitation and subsequent ice-cold acetone washes. Protein pellets were resuspended in 8 M urea, 50 mM HEPES (pH 8.5) buffer and protein concentrations were measured by BCA assay. […]\n(§2) For peptide tandem mass tag (TMT) labeling, 100 μg of peptides per sample was prepared at […] concentration in 200 mM HEPES (pH 8.5), 30% acetonitrile (ACN) and each the specific TMT reagent. […] TMT reporter ion intensities were quantified by extracting the signal-to-noise ratio for each. […]"}, "[2]": {"tested_on": "A375 NRAS^Q61K mutant melanoma cell line xenograft", "experiment": "In vivo efficacy in A375 NRAS^Q61K mutant melanoma xenograft", "parameters": "species or system BALBc/Nude mice", "details": "oral gavage"}, "[3]": {"target": "ARAF (Homo sapiens, UniProt P10398)", "sequence (P10398 whole entry)": "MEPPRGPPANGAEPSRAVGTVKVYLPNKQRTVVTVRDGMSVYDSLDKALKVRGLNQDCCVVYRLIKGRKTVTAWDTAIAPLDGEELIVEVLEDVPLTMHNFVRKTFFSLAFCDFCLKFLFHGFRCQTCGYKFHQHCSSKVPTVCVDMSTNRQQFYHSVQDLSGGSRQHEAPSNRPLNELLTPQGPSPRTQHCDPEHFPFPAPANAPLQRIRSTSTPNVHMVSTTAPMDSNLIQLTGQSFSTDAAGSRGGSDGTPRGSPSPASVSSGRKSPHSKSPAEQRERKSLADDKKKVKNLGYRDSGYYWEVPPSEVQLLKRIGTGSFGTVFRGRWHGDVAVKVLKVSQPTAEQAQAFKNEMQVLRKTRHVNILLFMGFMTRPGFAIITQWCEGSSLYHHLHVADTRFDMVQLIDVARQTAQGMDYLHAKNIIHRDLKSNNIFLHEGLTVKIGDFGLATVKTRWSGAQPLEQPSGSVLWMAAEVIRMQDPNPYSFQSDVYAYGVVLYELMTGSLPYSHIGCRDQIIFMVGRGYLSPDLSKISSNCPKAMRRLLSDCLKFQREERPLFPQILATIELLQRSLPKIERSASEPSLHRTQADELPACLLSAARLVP", "experiment": "Global proteomics profiling, A375 cells", "assay_type": "cell-based", "parameters": "endogenous in cells; host or cells: A375 (A7.2)", "details": "300 nM, 24 hours", "procedure": "as §1, §2"}, "[4]": {"tested_on": "A375 cells", "experiment": "CellTiter-Glo cell growth inhibition, A375 cells", "assay_type": "cell-based", "details": "Homo sapiens, A-375, 72 hr, mean of at least n = 3", "procedure": "A375 cell viability was determined based on quantification of ATP using CellTiter-Glo® 2.0 luminescent Assay kit, which signals the presence of metabolically-active cells. Briefly, test compound was added to 384-well plates at a top concentration of 10 μM with 14 points, half log titration in duplicates. A375 cells were seeded into the 384-well plates in DMEM medium containing 10% FBS at a cell density of 250 cells per well. Cells treated in the absence of the test compound were the negative control, normalized to 100% viability, and cells treated in the absence of CellTiter-Glo® 2.0 were the positive control, normalized to 0% viability. A375 cells were incubated at 37° C. with 5% CO2 for 72 hr. CellTiter-Glo reagent was then added to the cells and Luminescence was acquired on EnVision™ Multilabel Reader (PerkinElmer, Santa Clara, CA, USA)."}, "[5]": {"tested_on": "ERK phosphorylation", "experiment": "ERK phosphorylation (pERK) in A375 cells", "assay_type": "cell-based"}, "[6]": {"tested_on": "A375 cells expressing the oncogenic NRAS^Q61K mutation", "experiment": "Cellular growth over time of A375 cells expressing NRAS^Q61K", "assay_type": "cell-based"}, "[7]": {"target": "T1, GSPT1 (Homo sapiens, UniProt P15170)", "T1 construct": "endogenously expressing GSPT1 with HiBiT fusion tag via CRISPR; endogenous in cells; host or cells: HEK293T.114", "experiment": "GSPT1 protein levels after treatment", "assay_type": "cell-based", "details": "various concentrations"}, "[8]": {"tested_on": "LOXL4", "experiment": "Global proteomics profiling, A375 cells", "assay_type": "cell-based, human", "details": "300 nM, 24 hours", "procedure": "as §1, §2"}, "[9]": {"target": "T2, p61 splice variant (Homo sapiens, UniProt P15056+Q96SW2, DEL169-380/V600E)", "T2 construct": "host or cells: HEK-293T, lentiviral expression", "T2 sequence (P15056 with tags, fused parts or gaps DEL169-380/V600E)": "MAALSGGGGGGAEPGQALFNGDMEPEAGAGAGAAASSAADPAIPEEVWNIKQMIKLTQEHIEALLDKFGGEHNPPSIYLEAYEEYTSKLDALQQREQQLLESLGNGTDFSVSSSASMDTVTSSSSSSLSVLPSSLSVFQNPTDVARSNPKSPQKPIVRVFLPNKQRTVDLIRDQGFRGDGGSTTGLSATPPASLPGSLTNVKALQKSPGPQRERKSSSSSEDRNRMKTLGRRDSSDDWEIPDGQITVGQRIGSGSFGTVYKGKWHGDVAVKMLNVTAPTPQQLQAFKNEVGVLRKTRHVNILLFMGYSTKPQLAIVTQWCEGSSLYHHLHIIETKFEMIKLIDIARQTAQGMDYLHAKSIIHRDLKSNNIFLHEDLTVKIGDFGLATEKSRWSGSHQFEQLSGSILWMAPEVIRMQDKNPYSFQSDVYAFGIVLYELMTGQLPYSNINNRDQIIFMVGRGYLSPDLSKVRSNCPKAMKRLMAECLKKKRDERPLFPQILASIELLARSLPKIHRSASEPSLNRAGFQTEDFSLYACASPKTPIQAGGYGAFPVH", "T2 sequence (Q96SW2 whole entry, stated change not applied, canonical isoform)": "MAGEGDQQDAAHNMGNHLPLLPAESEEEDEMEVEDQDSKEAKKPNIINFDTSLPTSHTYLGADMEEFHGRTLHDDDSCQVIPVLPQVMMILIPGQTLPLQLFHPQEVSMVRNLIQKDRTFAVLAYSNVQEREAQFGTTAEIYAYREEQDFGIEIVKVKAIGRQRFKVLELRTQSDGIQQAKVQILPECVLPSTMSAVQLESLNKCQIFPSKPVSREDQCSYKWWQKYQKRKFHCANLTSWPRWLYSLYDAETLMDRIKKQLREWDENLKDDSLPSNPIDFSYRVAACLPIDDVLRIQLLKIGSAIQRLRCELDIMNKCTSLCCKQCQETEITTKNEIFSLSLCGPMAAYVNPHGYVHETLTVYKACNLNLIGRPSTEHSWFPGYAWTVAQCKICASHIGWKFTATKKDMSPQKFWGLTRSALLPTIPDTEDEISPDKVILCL", "T2 sequence (Q16531 whole entry partner, canonical isoform)": "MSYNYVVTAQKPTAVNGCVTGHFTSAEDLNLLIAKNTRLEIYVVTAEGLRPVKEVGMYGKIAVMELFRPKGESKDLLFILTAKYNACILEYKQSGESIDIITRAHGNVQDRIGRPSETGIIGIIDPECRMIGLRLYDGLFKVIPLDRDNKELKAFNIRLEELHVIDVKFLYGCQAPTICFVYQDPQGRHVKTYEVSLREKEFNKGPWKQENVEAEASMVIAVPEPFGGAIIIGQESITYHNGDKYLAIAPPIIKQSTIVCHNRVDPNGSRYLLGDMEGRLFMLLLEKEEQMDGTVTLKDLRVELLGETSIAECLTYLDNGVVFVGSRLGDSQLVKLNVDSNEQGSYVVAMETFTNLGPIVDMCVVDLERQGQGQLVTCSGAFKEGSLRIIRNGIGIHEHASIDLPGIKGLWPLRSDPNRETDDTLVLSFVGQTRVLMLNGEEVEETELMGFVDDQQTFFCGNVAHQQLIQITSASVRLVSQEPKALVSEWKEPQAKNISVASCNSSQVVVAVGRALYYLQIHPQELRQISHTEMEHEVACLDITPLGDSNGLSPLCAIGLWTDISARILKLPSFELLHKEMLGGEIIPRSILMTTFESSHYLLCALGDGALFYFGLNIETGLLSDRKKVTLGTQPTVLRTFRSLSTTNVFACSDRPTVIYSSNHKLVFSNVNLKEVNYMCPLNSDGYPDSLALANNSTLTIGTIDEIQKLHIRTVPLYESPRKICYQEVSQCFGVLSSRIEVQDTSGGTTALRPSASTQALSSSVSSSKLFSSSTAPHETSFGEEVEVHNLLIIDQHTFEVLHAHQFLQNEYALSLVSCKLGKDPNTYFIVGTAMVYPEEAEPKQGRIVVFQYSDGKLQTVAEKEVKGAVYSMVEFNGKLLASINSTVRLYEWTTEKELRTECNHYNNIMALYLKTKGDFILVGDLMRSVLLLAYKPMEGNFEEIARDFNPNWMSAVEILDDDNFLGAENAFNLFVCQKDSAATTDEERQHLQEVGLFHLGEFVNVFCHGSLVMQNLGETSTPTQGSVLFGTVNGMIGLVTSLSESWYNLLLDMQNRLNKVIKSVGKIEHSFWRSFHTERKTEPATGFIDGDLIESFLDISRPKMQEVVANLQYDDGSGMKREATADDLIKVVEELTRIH", "experiment": "Western blot of engineered HEK-293T cells expressing the p61 splice variant", "assay_type": "cell-based", "details": "lentivirus expression"}},
  "note": "“Also recorded” adds a separate entry of the source.",
  "data": [
    {"smiles": "CCN(C)S(=O)(=O)Nc1ccc(F)c(Oc2ccc3ncn([C@H]4COC5(CCN(C(=O)CC6(O)CCN(c7cc8c(cc7F)c(N7CCC(=O)NC7=O)nn8C)CC6)CC5)C4)c(=O)c3c2)c1C#N", "note": "[Compound 157, (3R)-3-[6-[2-cyano-3-[[ethyl(methyl)sulfamoyl]amino]-6-fluorophenoxy]-4-oxoquinazolin-3-yl]-8-[2-[1-[3-(2,4-dioxo-1,3-diazinan-1-yl)-5-fluoro-1-methylindazol-6-yl]-4-hydroxypiperidin-4-yl]acetyl]-1-oxa-8-azaspiro[4.5]decane]", "values": [
      {"measurement": "RAF1 (CRAF) protein level change", "setting": "[1]", "value": "remain largely unchanged"},
      {"measurement": "tumor response, single agent", "setting": "[2]; single agent", "value": "robust tumor growth inhibition; also recorded: efficacious"},
      {"measurement": "tumor response, in combination with trametinib", "setting": "[2]; with MEKi trametinib 0.1 mg/kg BID", "value": "tumor regressions"},
      {"measurement": "ARAF protein level change", "setting": "[3]", "value": "remain largely unchanged"},
      {"measurement": "GI50", "setting": "[4]", "value": 9.3, "unit": "nM"},
      {"measurement": "ERK phosphorylation by western blot", "setting": "[5]", "value": "significantly drops off"},
      {"measurement": "confluency", "setting": "[6]", "value": "≤ 50", "unit": "%"},
      {"measurement": "GSPT1 protein levels", "setting": "[7]", "value": "steady"},
      {"measurement": "LOXL4 protein level change", "setting": "[8]", "value": "decreased"},
      {"measurement": "degradation of p61 splice variant", "setting": "[9]", "value": "capable of degrading"}
    ]}
  ]
}
